Measurements: a melting point compilation (Tetko et al.; mined from patent text by program, amines drawn as free bases though some values may be those of a salt)

| melting point [°C] | SMILES |
| --- | --- |
| 55 | CCCCC(NC(=O)C(CS)C(C)c1ccccc1)C(=O)O (stereo not given) |
| 252 to 253 | O=C1CCC2=C(CCc3c(Cl)cccc32)N1 |
| 135 to 136 | O=C(c1ccccc1)c1nc(-c2ccncc2)cs1 |
| 128 to 132 | CCOc1ccc2c(c1)C(Cl)(c1ccccc1Cl)C(=O)N2 (stereo not given) |
| 125 to 126 | CCCSc1sc(C(=O)OCC)c2c1-c1nc(-c3ccccc3)sc1CC2 |
| 175 to 176 | Nc1ccc(-c2cccc([N+](=O)[O-])c2)cc1O |
| 170 | CCCc1c(OCCCS(=O)(=O)c2c(C(C)C)nn3ccccc23)ccc(C(C)=O)c1O |
| 125 | O=c1ncc(Cl)cn1COCc1ccccc1 |
| 128 to 131 | O=C(CC(=O)C(F)(F)F)Nc1cc(-c2ccccc2Br)n[nH]1 |
| 134 to 136 | Cc1ccc(Cl)c(Nc2ccccc2C(N)=S)c1Cl |
| 115 to 116 | CSc1ccccc1NC(=O)Nc1ccc(N2CCN(C(=O)Nc3ccc(OCCO)cc3C(F)(F)F)CC2)cc1 |
| 55 | Cc1ccccc1N=C(C#N)c1c(Cl)cccc1Cl |
| 185 to 187 | O=C1Nc2ccccc2CCC1(Cl)Cl |
| 163 to 165 | O=c1c(CCl)coc2c1COc1ccccc1-2 |
| 132 to 134 | Cc1nccn1-c1cc(C#N)cc(C(F)(F)F)c1 |
| 116 to 117 | ClCc1ccc(OCc2coc(/C=C/c3ccccc3)n2)cc1 |
| 53 | O=C(c1ccc(Cl)cc1)C(F)CCCl (stereo not given) |
| 161 to 162 | CC(C(=O)O)c1ccc2c(c1)Sc1ncccc1CC2 (stereo not given) |

| melting point [°C] | SMILES |
| --- | --- |
| 138 to 140 | O=C(c1ccc(O)cc1)c1c(F)c(F)c(F)c(F)c1F |
| 165 to 169 | CC(O)c1cccc(-c2cc3c(=O)n(NS(C)(=O)=O)c(=O)[nH]c3cc2C(F)(F)F)c1 (stereo not given) |
| 197 to 198 | N#Cc1cc(-c2cccnc2)nn1-c1ccc(NC(=O)c2ccc(OCCCC3OCCO3)nc2)cc1 |
| 145 to 147 | CCCCc1nn(-c2cc([N+](=O)[O-])ccc2Cl)c(=O)[nH]1 |
| 116 to 118 | CCCC(=O)n1nc(-c2ccncc2)nc1-c1ccncc1 |
| 202 to 203 | COc1ccc(C(=O)Nc2ccccc2)cc1Nc1cccc(NC(C)=O)c1 |
| 212 to 213 | CC1(C)OC(=O)Nc2ccc(-c3cccc(C#CC#N)c3)cc21 |
| 198 to 200 | COC(=O)c1ccc(C(=O)C#Cc2cc(-c3cccs3)c(OC)cc2OC)cc1 |
| 217 to 218 | CCC(=O)Nc1cc(C(=O)O)ccc1N1C(=O)CCC1(CO)CO |
| 193 | C[C@H]1c2cc(F)ccc2-c2ccccc2N1S(=O)(=O)c1ccc(O)cc1 |
| 277 to 280 | CC(C)N1CCC(CNc2ccccc2C(=O)Nc2ccc(Cl)cn2)CC1 |
| 99 to 100 | N[C@@H](Cc1ccc(C(F)(F)F)cc1)[C@H](O)c1ccc(F)cc1F (racemic) |
| 234 to 236 | c1ccc(-c2n[nH]c3c2Cc2ccccc2-3)cc1 |
| > 300 | CCCCc1nc2ccn(Cc3ccc(C(=O)O)cc3)c(=O)c2n1Cc1ccc(-c2ccccc2-c2nnn[nH]2)cc1 |
| 108 to 109 | Cc1ccc(S(=O)(=O)N[C@@H]2COC(=O)[C@H]2Cc2ccccc2)cc1 |
| 190 to 191 | O=C(CCl)c1ccc2c(c1)Nc1ccccc1S2 |
| 200 to 203 | Cc1ccc(C(=O)n2c3c(c4cc(C)ccc42)CC(C(=O)O)CC3)cc1 (stereo not given) |
| 296 to 298 | CN(C)c1ccc2c(c1)C(=O)CC(c1ccccc1O)=N2 |

The next lines start with the molecule.

| SMILES | melting point [°C] |
| --- | --- |
| CC(C)N1C(=O)N(c2ccc([N+](=O)[O-])c(C(F)(F)F)c2)C(=O)C1(C)C | 130 |
| COc1cc2c3ccc(OC)c(OC)c3n(C(=O)c3ccc(-c4ccccc4)cc3)c2cc1OC | 150 to 153 |
| CC(C)(C)OC(=O)[C@H]1C[C@@H](S(=O)(=O)c2ccccc2)[C@@H](c2ccccc2)N1C(=O)CNC(=O)Nc1cccc(C(=O)OCc2ccccc2)c1 (racemic) | 212 |
| C=CCN1C2CCC1C1CCC2N1C(c1ccc(C(=O)N(CC)CC)cc1)c1cccc(OC)c1 (stereo not given) | 99 to 101 |
| CC1c2cccn2-c2ccc(Br)cc2N1S(=O)(=O)c1ccc(O)cc1 (stereo not given) | 204 to 206 |
| Cc1cccc(-c2cn(C)cc(-c3ccc(Br)cc3)c2=O)c1 | 201 to 204 |
| CC(=O)OC(COc1ccc(C(=O)O)c(O)c1)c1ccc2c(c1)C(C)(C)CCC2(C)C (stereo not given) | 160 to 161 |
| COc1cc(C(=O)N2CCN(C(=O)C3=Cc4cc(O)c(O)cc4CCC3)CC2)cc(OC)c1OC | 206 to 207 |
| C=CCc1cc2c(c(CC=C)c1O)CCC(=O)N2CC(O)CC (stereo not given) | 115 to 116 |
| c1ccc2c(c1)[C@H](N1CCCCC1)C[C@@H]2N1CCCCC1 | 114 to 115 |
| Cc1c(C(N)=O)c2ccccc2n2c(N3CCCC3)nc(-c3noc(C4CC4)n3)c12 | 206 to 209 |
| COc1ccc(-c2nccc(N3CCN(c4c(C)c(C)c5c(c4C)CC(C)(C)O5)CC3)n2)cc1 | 240 to 242 |
| Nc1nc(Cl)nc2cnc(Oc3ccc(F)cc3F)cc12 | > 300 |
| CC12C=CC(=O)C=C1CCC1C3CC(OCCOC4CCCCO4)C(O)(C(=O)CCl)C3(C)CC(O)C12F (stereo not given) | 168 to 170 |
| Cc1cc(-c2nc3c(C)cc(Cl)nn3c2-c2ccnc(N)c2)ccc1F | 218 to 219 |
| N#Cc1ccc(S(=O)(=O)N2CCn3c(c(C(N)=O)c(Cl)c3-c3ccccc3)C2)cc1 | 205 to 206 |
| c1cc(CCC(Cn2ccnc2)Sc2ccc(N3CCCC3)cc2)ccn1 (stereo not given) | 148 to 149 |

| SMILES | melting point [°C] |
| --- | --- |
| CNC(=S)n1nc(Sc2ccc(C#N)cc2)nc1N | 200 to 203 |
| C=C1c2ccccc2C2(CCN(C)CC2)c2cccc(O)c21 | 117 to 120 |
| Nc1nnc(-c2cc3c(Oc4ccc(Cl)cc4)cncc3s2)s1 | > 270 |
| Nc1cc(-c2ccco2)ccc1Nc1cccc(-n2ccnc2)c1 | 191 to 194 |
| CCCOc1ccc(CCC(=O)N2CCOCC2)cc1-c1nc2c(c(C)nn2CCC)c(=O)[nH]1 | 132 to 133 |
| Cc1noc(NS(=O)(=O)c2c(Cl)sc(Cl)c2Br)c1Br | 146 to 149 |
| Cn1ccnc1C(O)(c1ccc(Cl)cc1)c1ccc(Cl)cc1 | 190 to 191 |
| COc1ccc(C)c2nc(Cc3ccc(Cl)cc3)[nH]c12 | 195 to 197 |
| CCc1nn(Cc2nnc(N)o2)c(CC)c1Oc1cc(Cl)cc(Cl)c1 | 226 to 228 |
| CC(=O)N1CCn2c(CN3CCOCC3)ccc2C1 | 117 to 118 |
| CCCOc1ccc(S(=O)(=O)NCc2ccncc2)cc1-c1nc2cc3nc[nH]c3cc2c(=O)[nH]1 | 189 to 190 |
| CC(C)c1cccc(C(C)C)c1NC(=O)CN1CCCN(CCCSc2nc3ncccc3o2)CC1 | 73 to 75 |
| COc1ccc(C(NCc2cccc(F)c2)c2cccc(Nc3c(N)c(=O)c3=O)c2)cc1 (stereo not given) | 209 to 212 |
| Cc1ccc(-n2c(=O)c(N)nc3cccnc32)cc1 | > 250 |
| CCOC(=O)c1cn(C2CC2)c2c(OC(F)F)c(F)c(F)c([N+](=O)[O-])c2c1=O | 262 to 268 |
| COC(=O)c1cnc(SC)n1C(c1ccccc1)c1ccccc1 | 118 |
| CCOc1ccc(-c2nc(-c3cc4c(c(C(=O)O)c3)OC(C)(C)C4)cs2)cc1OCC | 106 to 107 |
